What was measured:
[1] = test system: nucleases in saliva samples; type: biochemical, human; conditions: for degradation of RNA in saliva samples obtained from nuclease-rich donors: pH 5.2; for rRNA doublet integrity and RIN in saliva: pH 4.71; for RNA stability and RIN as pH decreased: pH 5; for rRNA doublet and RIN of spiked RNA in saliva: T2
[2] = test system: RNAse activity in saliva samples; assay: Nuclease assay (RNAseAlert) in saliva mixed 1:1 with formulation; type: biochemical, human; conditions: ATA 5 mM final; PAAc at pH 4.7; CDTA when ATA was present; saliva 1:1
[3] = test system: nucleases in stool samples; type: biochemical, human; conditions: pH 4.7
[4] = Solubility of salts in the present composition; conditions: 4% SDS/100 mM CDTA/10 mM ATA/10 mg/mL PAAc

**Q.** For `O[C@H](CS)[C@H](O)CS` (racemic) [dithiothreitol], which “degradation of RNA in saliva samples obtained from nuclease-rich donors” value (from here on “degradation of RNA”) [1] is on record?
**A.** Degradation of RNA

**Q.** Which “degradation of RNA” value [1] does the source give for `O=C(O)c1cc(SSc2ccc([N+](=O)[O-])c(C(=O)O)c2)ccc1[N+](=O)[O-]` [5,5-dithio-bis-(2-nitrobenzoic acid)] here?
**A.** Degradation of RNA

**Q.** For `O=C(O)c1cc2cccc([N+](=O)[O-])c2[nH]1` [7-nitroindole-2-carboxylic acid], which “degradation of RNA” value [1] is on record?
**A.** Degradation of RNA

**Q.** With `O=C(O)CN(CC(=O)O)C1CCCCC1N(CC(=O)O)CC(=O)O` (centres unmarked) [CDTA, 1,2-cyclohexanediaminetetraacetic acid] as the molecule, how does the “effect on RNAse activity of addition to guanidinium salt-based compositions” value [2] read?
**A.** minimal effect on RNAse activity

**Q.** What about the “RIN and rRNA doublet of spiked RNA in stool” value [3] of the same molecule?
**A.** RIN values increased and rRNA doublet remained intact

**Q.** For `CCCCCCCCCCCCCCCC[N+](C)(C)C.[Br-]` [CTAB, Cetyltrimethylammonium bromide], which “rRNA doublet integrity and RIN in saliva” value [1] is on record?
**A.** doublet was degraded and the RIN was significantly reduced

**Q.** Which “degradation of RNA” value [1] does the source give for `O=C(O[C@@H]1Cc2c(O)cc(O)cc2O[C@@H]1c1cc(O)c(O)c(O)c1)c1cc(O)c(O)c(O)c1` [EGCG, epigallocatechin gallate] here?
**A.** did not prevent degradation of RNA

**Q.** For `N#CS.N=C(N)N` [GTC, guanidinium thiocyanate], which “relative effectiveness for stabilizing RNA at low pH” value [1] is on record?
**A.** more effective than GuHCl

**Q.** And the “RNA stability and RIN as pH decreased” value [1]?
**A.** surprising improvement in RNA stability and corresponding increase in RIN

**Q.** With `Cl.N=C(N)N` [GuHCl, guanidinium hydrochloride] as the molecule, how does the “RNA stability and RIN as pH decreased” value [1] read?
**A.** surprising improvement in RNA stability and corresponding increase in RIN

**Q.** Which “solubility in the present composition” value [4] does the source give for `[Cl-].[K+]` [KCl] here?
**A.** solubility issues

**Q.** Which “rRNA doublet and RIN of spiked RNA in saliva” value (“rRNA doublet and RIN” for short) [1] does the source give for `O=S(=O)([O-])[O-].[Li+].[Li+]` [Li2SO4, lithium sulphate] here?
**A.** rRNA doublet was intact and the RIN was high

**Q.** Which “rRNA doublet and RIN” value [1] does the source give for `[Cl-].[Li+]` [LiCl, lithium chloride] here?
**A.** rRNA doublet was intact and the RIN was high

**Q.** Which “rRNA doublet and RIN” value [1] does the source give for `[Cl-].[Na+]` [NaCl, sodium chloride] here?
**A.** rRNA doublet was intact and the RIN was high

**Q.** With `CCCCCCCCCCCCOS(=O)(=O)[O-].[Na+]` [SDS, sodium dodecyl sulfate] as the molecule, how does the “rRNA doublet integrity and RIN in saliva” value [1] read?
**A.** able to preserve the integrity of rRNA

**Q.** For `N[C@H]1C(O)O[C@H](COP(=O)(O)O)[C@@H](O)[C@@H]1O` (some centres unmarked) [glucosamine 6-phosphate], which “degradation of RNA” value [1] is on record?
**A.** Degradation of RNA

**Q.** With `O=S(=O)(O)c1cc(O)c2c(O)c(/N=N/c3cccc4ccccc34)c(S(=O)(=O)O)cc2c1` [pontacyl violet 6R] as the molecule, how does the “degradation of RNA” value [1] read?
**A.** Degradation of RNA

**Q.** For `Cc1ccc(S(=O)(=O)O)cc1.[Na]` [sodium p-toluenesulfonate], which “degradation of RNA” value [1] is on record?
**A.** Degradation of RNA

**Q.** Which “degradation of RNA” value [1] does the source give for `O=C(O)CCP(CCC(=O)O)CCC(=O)O` [tris(2-carboxyethyl)phosphine] here?
**A.** Degradation of RNA

**Q.** With `OCCS` [β-2-mercaptoethanol] as the molecule, how does the “degradation of RNA” value [1] read?
**A.** Degradation of RNA

**Q.** With ribonucleoside vanadyl complexes as the molecule, how does the “degradation of RNA” value [1] read?
**A.** Degradation of RNA

**Q.** Which “rRNA doublet integrity and RIN in saliva” value [1] does the source give for sodium lauroyl sarcosinate [Sarkosyl] here?
**A.** doublet was degraded and the RIN was significantly reduced

B1: recombinant human placental RNAse inhibitor (protein, UniProt P13489 2-461, looked up)
Ribonuclease inhibitor: SLDIQSLDIQCEELSDARWAELLPLLQQCQVVRLDDCGLTEARCKDISSALRVNPALAELNLRSNELGDVGVHCVLQGLQTPSCKIQKLSLQNCCLTGAGCGVLSSTLRTLPTLQELHLSDNLLGDAGLQLLCEGLLDPQCRLEKLQLEYCSLSAASCEPLASVLRAKPDFKELTVSNNDINEAGVRVLCQGLKDSPCQLEALKLESCGVTSDNCRDLCGIVASKASLRELALGSNKLGDVGMAELCPGLLHPSSRLRTLWIWECGITAKGCGDLCRVLRAKESLKELSLAGNELGDEGARLLCETLLEPGCQLESLWVKSCSFTAACCSHFSSVLAQNRFLLELQISNNRLEDAGVRELCQGLGQPGSVLRVLWLADCDVSDSSCSSLAATLLANHSLRELDLSNNCLGDAGILQLVESVRQPGCLLEQLVLYDIYWSEEMEDRLQALEKDKPSLRVIS
**Q.** With B1 as the molecule, how does the “degradation of RNA” value [1] read?
**A.** Degradation of RNA

— patent US20240271184A1, “LOW PH COMPOSITION AND METHOD FOR S[…] ACIDS IN BIOLOGICAL SAMPLES” (priority 2021, published 2024)
